Data set [1] relates to AR target proteins (ERG, MYC, PSA). In words: Immunoblot of AR target proteins. The data set is classed as cell-based, human. Here is the method:
Cell lysates were prepared with RIPA buffer (Boston Bioproducts, BP-115DG)-10 mM Tris-HCl pH 7.5, 1 mM EDTA, 400 mM NaCl, 0.5% NP-40 and 1 mM DTT, supplemented with protease inhibitor cocktail (Pierce, A32965) and phosphatase inhibitor (Thermo, 1861280). For immunoblotting 200 μg total protein extract was boiled in sample buffer and 15-25 μg aliquots were separated by SDS-PAGE and transferred onto Polyvinylidene Difluoride membrane (GE Healthcare, IPVH00010). The membrane was incubated for one hour in blocking buffer [Tris-buffered saline, 0.1% Tween (TBS-T), 5% nonfat dry milk followed by overnight incubation on a rocker at 4° C. with the primary antibody. Following a wash with TBS-T, the blot was incubated with horseradish peroxidase-conjugated secondary antibody for 2 hrs on a rocker at room temperature. The blots were washed again and signals were visualized using enhanced chemiluminescence system as per manufacturer's protocol (GE Healthcare) or Kwik Quant Imager (Kindle Biosciences). […]
Background: Immunoblotting shows a protein as a band on a membrane.

The test system of data set [2] is AR-positive LNCaP and VCaP cells. Description: Annexin V-FITC apoptosis analysis. It is filed as cell-based, human. The protocol:
(§1) Apoptosis induction was quantified using the Annexin-V and FITC Apoptosis Kit, as per manufacturer's instructions. Briefly LNCaP, VCaP, DU145 and PC3 cells were plated at a density of 5×10^5 cells per well in a 6-well culture plate. After subsequent treatments, the cells were harvested following incubation with a staining solution containing 10 μL propidium iodide and 5 μL Annexin for 10 min and analyzed by flow cytometry (BD FACS Aria II, BD Biosciences, San Jose).

For data set [3], the system named is AR-negative PC3 and DU145 cells. In words: Annexin V-FITC apoptosis analysis. The data set is classed as cell-based, human. The protocol:
as §1

Another data set relates to VCaP CRPC xenograft. Description: VCaP CRPC mouse xenograft. The data set is classed as in vivo. Here is the method: In vivo efficacy studies were performed in accordance with protocols approved by the Institutional Animal Care and Use Committee (IACUC) at the University of Pennsylvania and in compliance with all regulatory standards. Four to five-week-old male NOD SCID gamma mice (Jackson Lab, 005557) were procured from Jackson Laboratory. In the VCaP experiment, 2×10^6 VCaP prostate cancer cells suspended in 80 μL of RPMI-1640 with 50% Matrigel (BD Biosciences) were implanted subcutaneously into the dorsal flank of the mice. The animals were castrated when the tumor volumes reached approximately 150 mm^3. […] Tumor growth was recorded using digital calipers and tumor volumes were estimated using the formula (π/6) (L×W^2), where L=length and W=width of tumor. Body weight during the study was also monitored. At the end of the treatment regimen the mice were sacrificed and were extracted for further analysis.
Xenograft tumor pieces were fixed in 4% of formaldehyde for 48 h and paraffin embedded. Paraffin embedded sections from the tumors of treated and untreated mice were deparaffinized, rehydrated and subjected to epitope retrieval stained with a phospho-MED1 antibody (1:4000/1:2000), anti-PSA antibody (1:1000), anti-Ki67 (1:500), or anti-cleaved caspase3 antibody (1:1000) followed by peroxidase-based detection and counterstaining with hematoxylin using the Leica Bond Rxm system. Photographs were taken on a Leica DMI6000B inverted light and fluorescent microscope with a 20× objective. images were assessed and quantified in ImageJ.
Whole blood of the xenograft bearing mice was collected with heparinized blood collecting tubes (Fisherbrand, 02-668-10), and cells were removed from plasma by centrifugation for 10 minutes at 2,000 g at 4° C. The plasma was used to detect PSA levels using the Human PSA ELBA Kit (Abeam, ab113327) following the manufacturer's protocol. In brief, we diluted the mice plasma ten time with Assay Diluent A, and LNCaP culturing media was used as a positive control. Serially diluted standards were used for quantification. 100 μL of each sample was loaded on the human PSA specific antibody coated 96-well plate in duplicates and the plate was incubated overnight at 4° C. to allow the PSA presented in samples to bind to the wells. The wells were then washed, and biotinylated anti-Human PSA antibody was added. After washing away unbound biotinylated antibody, HRP-conjugated streptavidin was added into the wells. The wells were again washed and developed with a TMB substrate solution followed by the addition of the stop solution and colorimetric measurement of the intensity at 450 nm. The concentrations of the PSA in the samples were calculated based on the standard curve.

The mark [4] stands for this setting: residual tumors, 10 mg/kg b.i.d., four weeks.

`CN(C)C/C=C/C(=O)Nc1ccc(C(=O)Nc2cccc(Nc3ncc(Cl)c(-c4c[nH]c5ccccc45)n3)c2)cc1` [THZ1]: the “AR target protein expression” value in data set [1] (LNCaP and VCaP) was “decreased AR target protein expression”. Besides, the ERG levels result in data set [1] (VCaP, dose and time-dependent) is reported as “reduction in ERG levels”. Further, in data set [2], the apoptosis entry was “induced robust apoptosis”. The apoptosis result in data set [3] is given as “not observed”. In the data set on VCaP CRPC xenograft (10 mg/kg b.i.d., four weeks), the systemic toxicity entry was “well tolerated with no treatment-related systemic toxicity observed” and the “tumor p-MED1 levels” value is reported as “significant reduction in p-MED1 levels”. The “plasma PSA expression” value with VCaP CRPC xenograft (10 mg/kg b.i.d., four weeks, vs vehicle treated mice) is listed as “significantly reduced”. For the same molecule, the animal weight result with VCaP CRPC xenograft (10 mg/kg twice daily, 4 weeks) was “does not affect the animal weight”. Also, the tumor volume entry with VCaP CRPC xenograft (castrated mice, 10 mg/kg b.i.d. intraperitoneally, four weeks, vs vehicle) was “dramatic tumor regression”. For the same molecule, in the data set with VCaP CRPC xenograft (setting [4]), the “tumor PSA expression (IHC)” value is on record as “loss of PSA expression”, the “tumor apoptosis (cleaved caspase-3)” value was “increased apoptosis”, the tumor necrosis entry is given as “necrosis” and the “tumor proliferative activity (KI-67)” value is on record as “reduced proliferative activity”.

The values above are taken from patent US12678438B2, “Treatment of cancer with CDK inhibitors” (THE TRUSTEES OF THE UNIVERSITY OF PENNSYLVANIA, priority 2019, dated 2026).
